The text below walks through data of article PMC9396396, “Molecular and functional interactions of alpha-synuclein with Rab3a” (The Journal of Biological Chemistry, 2022).

In this assay the test system is T1, Rab3a-a-Syn fusion construct.
T1 construct: single-chain fusion: 6-His-tag, Rab3a 15-186 (C137A, wild-type Q81), GSGS linker, alpha-synuclein 101-140 (not phosphorylated); pET15b, E. coli; with Alpha-synuclein
Description: malachite green phosphate release, Michaelis-Menten fit. The class given is biochemical. As to conditions: pH 7.5, 20 mM Hepes, 2 mM MgCl2, 1 mM DTT, 37 °C; a-Syn C-terminal tail covalently fused; no free a-Syn, no SUV. The source says:
malachite green phosphate release, Michaelis-Menten fit on Rab3a-a-Syn fusion construct

Molecules are shown by their SMILES.

Regarding `Nc1nc2c(ncn2[C@@H]2O[C@H](COP(=O)(O)OP(=O)(O)OP(=O)(O)O)[C@@H](O)[C@H]2O)c(=O)[nH]1` [GTP], the Km (usually the concentration of substrate that gives half-maximal velocity) was found to be 174 ± 46 µM.
